{"source": "patent US20260232767A1", "about": "“INTERLEUKIN-23 RECEPTOR ANTAGONIST PEPTIDES FOR USE IN THE TREATMENT OF PSORIASIS” (Janssen Pharmaceutica NV, priority 2023, published 2026)", "tested_on": "subjects with moderate-to-severe plaque psoriasis", "assay": "Safety, adverse events, Example 2 through Week 56", "format": "in vivo, human", "conditions": "Combined; through Week 56", "from_the_text": "The LTE safety analysis was based on randomized participants in Example who entered the present long-term extension study and received at least one dose of study intervention (including a partial dose) during the study period."}
{"compound": "CC(=O)NCCCC[C@@H]1NC(=O)[C@H](Cc2c[nH]c3c(C)cccc23)NC(=O)[C@H]([C@@H](C)O)NC(=O)[C@H](CC(N)=O)NC(=O)[C@@H](NC(C)=O)C(C)(C)SSC(C)(C)[C@@H](C(=O)N[C@@H](Cc2ccc(OCCN)cc2)C(=O)N[C@@H](Cc2ccc3ccccc3c2)C(=O)NC2(C(=O)N[C@@H](CCC(=O)O)C(=O)N[C@@H](CC(N)=O)C(=O)N[C@@H](Cc3cccnc3)C(=O)N(C)CC(N)=O)CCOCC2)NC1=O", "note": "[IL-23 receptor antagonist peptide, Ac-[Pen]*-N-T-[W(7-Me)]-[Lys(Ac)]-[Pen]*-Phe[4-(2-aminoethoxy)]-[2-Nal]-[THP]-E-N-[3-Pal]-Sarc-NH2 (*[Pen]-[Pen]* formdisulfidebond)]", "values": [{"measurement": "Coronary artery disease: % of subjects", "result": "(0.4%)"}, {"measurement": "Coronary artery disease: number of subjects", "result": 1}, {"measurement": "Cough: % of subjects", "result": "(3.2%)"}, {"measurement": "Cough: number of subjects", "result": 8}, {"measurement": "Decreased appetite: % of subjects", "result": "(0.4%)"}, {"measurement": "Decreased appetite: number of subjects", "result": 1}, {"measurement": "Depression: % of subjects", "result": "(0.8%)"}, {"measurement": "Depression: number of subjects", "result": 2}, {"measurement": "Dermal cyst: % of subjects", "result": "(0.4%)"}, {"measurement": "Dermal cyst: number of subjects", "result": 1}, {"measurement": "Dermatitis acneiform: % of subjects", "result": "(0.4%)"}, {"measurement": "Dermatitis acneiform: number of subjects", "result": 1}, {"measurement": "Dermatitis contact: % of subjects", "result": "(1.6%)"}, {"measurement": "Dermatitis contact: number of subjects", "result": 4}, {"measurement": "Diabetes mellitus: % of subjects", "result": "(0.8%)"}, {"measurement": "Diabetes mellitus: number of subjects", "result": 2}, {"measurement": "Diffuse alopecia: % of subjects", "result": "(0.4%)"}, {"measurement": "Diffuse alopecia: number of subjects", "result": 1}, {"measurement": "Dysuria: % of subjects", "result": "(0.4%)"}, {"measurement": "Dysuria: number of subjects", "result": 1}, {"measurement": "Ear and labyrinth disorders: % of subjects", "result": "(1.2%)"}, {"measurement": "Ear and labyrinth disorders: number of subjects", "result": 3}, {"measurement": "Endocrine disorders: % of subjects", "result": "(0.4%)"}, {"measurement": "Endocrine disorders: number of subjects", "result": 1}, {"measurement": "Eye disorders: % of subjects", "result": "(1.2%)"}, {"measurement": "Eye disorders: number of subjects", "result": 3}, {"measurement": "Eyelid skin dryness: % of subjects", "result": "(0.4%)"}, {"measurement": "Eyelid skin dryness: number of subjects", "result": 1}, {"measurement": "Fatigue: % of subjects", "result": "(1.6%)"}, {"measurement": "Fatigue: number of subjects", "result": 4}, {"measurement": "General disorders and administration site conditions: % of subjects", "result": "(5.3%)"}, {"measurement": "General disorders and administration site conditions: number of subjects", "result": 13}, {"measurement": "Goiter: % of subjects", "result": "(0.4%)"}, {"measurement": "Goiter: number of subjects", "result": 1}, {"measurement": "Haemochromatosis: % of subjects", "result": "(0.4%)"}, {"measurement": "Haemochromatosis: number of subjects", "result": 1}, {"measurement": "Hand dermatitis: % of subjects", "result": "(0.4%)"}, {"measurement": "Hand dermatitis: number of subjects", "result": 1}, {"measurement": "Hematuria: % of subjects", "result": "(0.8%)"}, {"measurement": "Hematuria: number of subjects", "result": 2}, {"measurement": "Hepatobiliary disorders: % of subjects", "result": "(1.2%)"}, {"measurement": "Hepatobiliary disorders: number of subjects", "result": 3}, {"measurement": "Hypercholesterolemia: % of subjects", "result": "(0.4%)"}, {"measurement": "Hypercholesterolemia: number of subjects", "result": 1}, {"measurement": "Hyperglycemia: % of subjects", "result": "(1.6%)"}, {"measurement": "Hyperglycemia: number of subjects", "result": 4}, {"measurement": "Hyperlipidemia: % of subjects", "result": "(0.4%)"}, {"measurement": "Hyperlipidemia: number of subjects", "result": 1}, {"measurement": "Hypertension: % of subjects", "result": "(2.8%)"}, {"measurement": "Hypertension: number of subjects", "result": 7}, {"measurement": "Hypertransaminasemia: % of subjects", "result": "(0.4%)"}, {"measurement": "Hypertransaminasemia: number of subjects", "result": 1}, {"measurement": "Hypertriglyceridemia: % of subjects", "result": "(0.4%)"}, {"measurement": "Hypertriglyceridemia: number of subjects", "result": 1}, {"measurement": "Hypoacusis: % of subjects", "result": "(0.4%)"}, {"measurement": "Hypoacusis: number of subjects", "result": 1}, {"measurement": "Immune system disorders: % of subjects", "result": "(0.8%)"}, {"measurement": "Immune system disorders: number of subjects", "result": 2}, {"measurement": "Influenza like illness: % of subjects", "result": "(0.4%)"}, {"measurement": "Influenza like illness: number of subjects", "result": 1}, {"measurement": "Insomnia: % of subjects", "result": "(0.8%)"}, {"measurement": "Insomnia: number of subjects", "result": 2}, {"measurement": "Intertrigo: % of subjects", "result": "(0.4%)"}, {"measurement": "Intertrigo: number of subjects", "result": 1}, {"measurement": "Ketonuria: % of subjects", "result": "(0.4%)"}, {"measurement": "Ketonuria: number of subjects", "result": 1}, {"measurement": "Leukocyturia: % of subjects", "result": "(0.4%)"}, {"measurement": "Leukocyturia: number of subjects", "result": 1}, {"measurement": "Leukopenia: % of subjects", "result": "(0.4%)"}, {"measurement": "Leukopenia: number of subjects", "result": 1}, {"measurement": "Libido decreased: % of subjects", "result": "(0.4%)"}, {"measurement": "Libido decreased: number of subjects", "result": 1}, {"measurement": "Liver disorder: number of subjects", "result": 0}, {"measurement": "Lymphopenia: % of subjects", "result": "(0.8%)"}, {"measurement": "Lymphopenia: number of subjects", "result": 2}, {"measurement": "Menopause: % of subjects", "result": "(0.4%)"}, {"measurement": "Menopause: number of subjects", "result": 1}, {"measurement": "Metabolism and nutrition disorders: % of subjects", "result": "(4.5%)"}, {"measurement": "Metabolism and nutrition disorders: number of subjects", "result": 11}, {"measurement": "Neoplasms benign, malignant and unspecified (incl cysts and polyps): % of subjects", "result": "(2.4%)"}, {"measurement": "Neoplasms benign, malignant and unspecified (incl cysts and polyps): number of subjects", "result": 6}, {"measurement": "Nephrolithiasis: % of subjects", "result": "(0.4%)"}, {"measurement": "Nephrolithiasis: number of subjects", "result": 1}, {"measurement": "Neutropenia: % of subjects", "result": "(0.8%)"}, {"measurement": "Neutropenia: number of subjects", "result": 2}, {"measurement": "Night sweats: % of subjects", "result": "(0.4%)"}, {"measurement": "Night sweats: number of subjects", "result": 1}, {"measurement": "Non-cardiac chest pain: % of subjects", "result": "(0.4%)"}, {"measurement": "Non-cardiac chest pain: number of subjects", "result": 1}, {"measurement": "Ocular cyst: % of subjects", "result": "(0.4%)"}, {"measurement": "Ocular cyst: number of subjects", "result": 1}, {"measurement": "Oedema peripheral: % of subjects", "result": "(1.6%)"}, {"measurement": "Oedema peripheral: number of subjects", "result": 4}, {"measurement": "Oropharyngeal pain: % of subjects", "result": "(0.8%)"}, {"measurement": "Oropharyngeal pain: number of subjects", "result": 2}, {"measurement": "Procedural pain: % of subjects", "result": "(0.4%)"}, {"measurement": "Procedural pain: number of subjects", "result": 1}, {"measurement": "Productive cough: % of subjects", "result": "(0.4%)"}, {"measurement": "Productive cough: number of subjects", "result": 1}, {"measurement": "Proteinuria: % of subjects", "result": "(0.4%)"}, {"measurement": "Proteinuria: number of subjects", "result": 1}, {"measurement": "Pruritus: % of subjects", "result": "(0.8%)"}, {"measurement": "Pruritus: number of subjects", "result": 2}, {"measurement": "Psoriasis: % of subjects", "result": "(1.2%)"}, {"measurement": "Psoriasis: number of subjects", "result": 3}, {"measurement": "Psychiatric disorders: % of subjects", "result": "(2.0%)"}, {"measurement": "Psychiatric disorders: number of subjects", "result": 5}, {"measurement": "Pyrexia: % of subjects", "result": "(0.8%)"}, {"measurement": "Pyrexia: number of subjects", "result": 2}, {"measurement": "Rash pruritic: number of subjects", "result": 0}, {"measurement": "Renal and urinary disorders: % of subjects", "result": "(3.2%)"}, {"measurement": "Renal and urinary disorders: number of subjects", "result": 8}, {"measurement": "Renal mass: % of subjects", "result": "(0.4%)"}, {"measurement": "Renal mass: number of subjects", "result": 1}, {"measurement": "Respiratory, thoracic and mediastinal disorders: % of subjects", "result": "(5.3%)"}, {"measurement": "Respiratory, thoracic and mediastinal disorders: number of subjects", "result": 13}, {"measurement": "Retinal vein occlusion: % of subjects", "result": "(0.4%)"}, {"measurement": "Retinal vein occlusion: number of subjects", "result": 1}, {"measurement": "Rhinorrhoea: % of subjects", "result": "(0.4%)"}, {"measurement": "Rhinorrhoea: number of subjects", "result": 1}, {"measurement": "Seasonal allergy: % of subjects", "result": "(0.8%)"}]}
